Measurements taken from ChEMBL document CHEMBL1152372, “A stabilized demethoxyviridin derivative inhibits PI3 kinase” (Bioorg Med Chem Lett, 2009).

What was measured:
[1] = Stability in PBS at pH 7.4 assessed as half life at 1.5 mM by HPLC in presence of proline; type: physicochemical; details: buffer, pH 7.4, 1500 µM
[2] = Stability in RPMI culture media assessed as half life at 1.5 mM by HPLC; type: physicochemical; details: 1500 µM
[3] = Stability in PBS at pH 7.4 assessed as half life at 1.5 mM by HPLC in presence of glycine; type: physicochemical; details: buffer, pH 7.4, 1500 µM
[4] = Stability in PBS at pH 7.4 assessed as half life at 1.5 mM by HPLC in presence of NAc-lysine; type: physicochemical; details: buffer, pH 7.4, 1500 µM
[5] = target: Phosphatidylinositol 4,5-bisphosphate 3-kinase catalytic subunit alpha isoform (Homo sapiens, UniProt P42336); test: Inhibition of PI3 kinase
[6] = Stability in PBS at pH 7.4 assessed as half life at 1.5 mM by HPLC; type: physicochemical; details: buffer, pH 7.4, 1500 µM

Sequence of Phosphatidylinositol 4,5-bisphosphate 3-kinase catalytic subunit alpha isoform (P42336 whole entry, canonical isoform): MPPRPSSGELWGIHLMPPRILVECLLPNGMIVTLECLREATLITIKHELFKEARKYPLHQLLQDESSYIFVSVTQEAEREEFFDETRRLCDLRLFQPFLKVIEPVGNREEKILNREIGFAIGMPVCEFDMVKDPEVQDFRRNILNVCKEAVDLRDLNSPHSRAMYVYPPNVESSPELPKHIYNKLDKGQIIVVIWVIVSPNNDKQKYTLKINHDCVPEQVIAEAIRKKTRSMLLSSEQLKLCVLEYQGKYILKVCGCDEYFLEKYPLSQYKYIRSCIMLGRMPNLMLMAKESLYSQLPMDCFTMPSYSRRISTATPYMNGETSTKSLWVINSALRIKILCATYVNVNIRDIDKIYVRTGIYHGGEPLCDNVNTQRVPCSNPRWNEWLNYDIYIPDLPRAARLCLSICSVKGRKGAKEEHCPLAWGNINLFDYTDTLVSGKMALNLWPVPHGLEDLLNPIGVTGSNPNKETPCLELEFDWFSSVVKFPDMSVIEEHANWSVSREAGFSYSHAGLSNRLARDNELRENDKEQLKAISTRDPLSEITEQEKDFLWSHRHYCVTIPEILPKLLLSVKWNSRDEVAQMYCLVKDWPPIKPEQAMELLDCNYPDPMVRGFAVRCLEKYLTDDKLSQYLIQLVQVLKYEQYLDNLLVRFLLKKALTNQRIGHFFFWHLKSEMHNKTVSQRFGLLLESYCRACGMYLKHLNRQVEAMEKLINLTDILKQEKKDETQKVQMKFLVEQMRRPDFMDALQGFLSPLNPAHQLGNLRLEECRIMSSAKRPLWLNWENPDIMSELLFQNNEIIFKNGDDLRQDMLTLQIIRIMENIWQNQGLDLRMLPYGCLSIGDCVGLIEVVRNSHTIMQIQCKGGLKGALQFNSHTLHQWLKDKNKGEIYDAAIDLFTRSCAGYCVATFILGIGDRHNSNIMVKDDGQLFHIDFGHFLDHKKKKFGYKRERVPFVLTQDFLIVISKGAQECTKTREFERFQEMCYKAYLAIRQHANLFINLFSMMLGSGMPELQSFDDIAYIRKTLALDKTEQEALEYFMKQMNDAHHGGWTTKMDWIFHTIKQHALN

C[C@@]12c3ccc4c(c3C(=O)c3occ(c31)C(=O)C[C@H]2O)CCC4=O [DEMETHOXYVIRIDIN]
t1/2 [1]: 0.59 min | t1/2 [2]: 0.47 min | t1/2 [3]: 0.99 min | t1/2 [4]: 0.61 min | IC50 [5]: 1 nM | t1/2 [6]: 0.433 h

COC[C@H]1OC(=O)/C(=C\N2CCCC2C(=O)O)C2=C(O)C(=O)C3=C([C@H](OC(C)=O)C[C@]4(C)C(=O)CC[C@@H]34)[C@]21C (stereo partly drawn)
IC50 [5]: 68 nM

COC[C@H]1OC(=O)/C(=C\NCCCCC(NC(C)=O)C(=O)O)C2=C(O)C(=O)C3=C([C@H](OC(C)=O)C[C@]4(C)C(=O)CC[C@@H]34)[C@]21C (stereo partly drawn)
IC50 [5]: > 1000 nM

COC[C@H]1OC(=O)c2coc3c2[C@@]1(C)C1=C(C3=O)[C@@H]2CCC(=O)[C@@]2(C)C[C@H]1OC(C)=O [WORTMANNIN]
t1/2 [1]: 1.5 min | t1/2 [2]: 0.99 min | t1/2 [3]: 4.1 min | t1/2 [4]: 18.4 min | t1/2 [6]: 57.83 h

C[C@]12C(=C(O)C(=O)c3c1ccc1c3CCC1=O)/C(=C/NCC(=O)O)C(=O)C[C@H]2OC(=O)CCC(=O)O
t1/2 [1]: 126 min | t1/2 [2]: 64 min | t1/2 [4]: 94 min | t1/2 [6]: 3.63 h

C[C@@]12c3ccc4c(c3C(=O)c3occ(c31)C(=O)C[C@H]2OC(=O)CCC(=O)O)CCC4=O
t1/2 [1]: 108 min | t1/2 [2]: 0.43 min | t1/2 [3]: 13.5 min | t1/2 [4]: 23 min | IC50 [5]: 20 nM | t1/2 [6]: 2 h
